Measurements published in US20100209378A1, “Dimethylcyclohexyl Derivatives as Malodor Neutralizers” (GIVAUDAN SA, priority 2007, published 2010).

What was measured:
[1] = Sensory panel (LMS) reduction of synthetic axilla malodor on cotton pads; conditions: 100 ul of 1% solution of test compound on pad with 100 ul 0.1% axilla malodor; panel of 20, LMS
Experimental: A 0.1% ethanol solution of synthetic axilla malodor was prepared and a 100 ul aliquot was placed onto cotton pads. 1% solutions of test compounds were prepared and 100 ul dosed on to the axilla treated pads. One pad was left untreated as the control. Each pad was allowed to dry for 15 minutes. The test cotton pads were randomized, and a panel of 20 was used. Each panelist was asked to check a box that represented the strength of the axilla malodor using a Labeled Magnitude Scale (LMS) (Barry G. Green, Pamela Dalton, Beverly Cowart, Greg Shaffer, Krystyna Rankin and Jennifer Higgins. Evaluating the Labeled Magnitude Scale for Measuring Sensations of Taste and Smell. Chemical Senses. Vol. 21, pp 323-334, 1996).
The % reduction of malodor was calculated by: […]
Composition 1 was compared with composition 2 for malodor reduction efficiency using the method described in Example 6.

[2] = Headspace GC/MS malodor reduction, allyl disulphide; conditions: 0.5 g test compound, 10 ul malodor in 1 l headspace jar, 60 minutes contact at 25° C.
Experimental: (§1) Amines are key contributors to many household malodors. Sulfides are present in odors associated with bad breath. In order to assess the malodor reduction efficacy of the compounds of the present invention, they were evaluated for their ability to reduce hexyl amine malodor and allyl disulphide by the following method.
(§2) A one liter glass headspace collection jar had placed inside it a 25 ml stoppered glass container which contained 0.5 g of a test compound. 10 ul of hexyl amine or allyl disulphide mercaptan as a representative malodor was injected into the headspace jar. This was left for 15 minutes at 25° C. to equilibrate. One ml/minute of the headspace was drawn for one minute through a Tenax™ headspace trap. The Tenax™ trap was removed and thermally desorbed into an Agilent 6890 GC/MS to analyze the quantity of hexyl amine and allyl disulphide mercaptan respectively in the headspace to determine the initial concentration of the hexyl amine malodor/ally disulphide mercaptan. The glass stopper was removed from the container and the test component and the malodor were left in contact for 60 minutes at 25° C. One ml/minute of the headspace was drawn for one minute through a Tenax™ trap and the amount of malodor remaining was determined as above.

[3] = Headspace GC/MS malodor reduction, hexyl amine; conditions: 0.5 g test compound, 10 ul malodor in 1 l headspace jar, 60 minutes contact at 25° C.
Experimental: as §1, §2

[4] = Headspace GC/MS malodor reduction, onion oil; conditions: method of Example 4; diallyl sulfide and diallyl disulfide measured as standard
Experimental: as §2
(§3) Evaluation of the malodor reduction potential of the compounds of the present invention on malodors of natural garlic oil and onion oil using the methodology described in Example 4 is shown in Table 2. As standard for determining the reduction of onion oil odor the amount of diallyl sulfide and diallyl disulfide were measured, and propyl methyl disulfide and dipropyl disulfide for determining the reduction of garlic oil odor.

[5] = Headspace GC/MS malodor reduction, garlic oil; conditions: method of Example 4; propyl methyl disulfide and dipropyl disulfide measured as standard
Experimental: as §2, §3

Structure (SMILES)	% Reduction of Axilla [1]	% Reduction of allyl disulphide [2]	% Reduction of hexyl amine [3]	% Reduction of onion oil odor [4]	% Reduction of garlic oil odor [5]
CC(O)C(=O)OC(C)C1CCCC(C)(C)C1 (stereo not shown) [Compound A, 1-(3,3-dimethylcyclohexyl)ethyl 2-hydroxypropanoate]	77.2%	81.5%	80.3%	87.2%	87.7%
CC(OCC(=O)O)C1CCCC(C)(C)C1 (stereo not shown) [Compound B, 2-(1-(3,3-dimethylcyclohexyl)ethoxy)acetic acid]	67.6%	74.6%	91.4%	66.3%	73.2%
CC(OCCO)C1CCCC(C)(C)C1 (stereo not shown) [Compound C, 2-(1-(3,3-dimethylcyclohexyl)ethoxy)ethanol]	61.4%	70.2%	71.2%	78.4%	67.4%
CC(C)=CCCC(C)CCOC(=O)C=C(C)C (stereo not shown) [citronellyl methylcrotonate, reference compound]	53.1%	–	–	–	–
